Measurements: ChEMBL document CHEMBL1146558, “Constituents from the stems of Aristolochia manshuriensis” (J Nat Prod, 2003)
In brackets after ≈: the same amount, converted by molar mass. Activity calls are given as the source filed them. The rule behind the calls is not given here.

Legend:
MCF7 = test: Cytotoxicity against human MCF7 cells after 3 days by SRB assay; type: functional, cell-based
A549 = test: Cytotoxicity against human A549 cells after 3 days by SRB assay; type: functional, cell-based
[1] = test system: Human immunodeficiency virus; test: Antiviral activity against HIV infected in human H9 cells; type: functional, organism-based; conditions: Human immunodeficiency virus 1, H9
H9 = test: Cytotoxicity against human H9 cells; type: cell-based
[2] = Therapeutic index, ratio of IC50 for human H9 cells to EC50 for HIV; type: cell-based; conditions: read-out: Ratio IC50/EC50

SMILES | Activity (MCF7) | Activity (A549) | EC50 [1] [µg/mL] | IC50 (H9) [µg/mL] | selectivity ratio [2]
COc1cc(/C=C/C(=O)NCCc2ccc(O[C@@H]3O[C@H](CO)[C@@H](O)[C@H](O)[C@H]3O)c(OC)c2)ccc1O[C@@H]1O[C@H](CO)[C@@H](O)[C@H](O)[C@H]1O | inactive | inactive | – | – | –
O=C(O)c1cc2c(c3c1ccc1ccccc13)OCO2 | inactive | inactive | – | – | –
CC1=C2OC(C)(C)c3c(O)cc(C)c(c32)C(=O)C1=O [DEHYDROOXOPEREZINONE] | inactive | inactive | 17.5 (≈ 67.8 µM) | 25.1 (≈ 97.2 µM) | 1.43
